These results are taken from US12275731B2, “Azaindole inhibitors of wild-type and mutant forms of LRRK2” (DANA-FARBER CANCER INSTITUTE, INC., priority 2018, dated 2025).

Assay in all cases: KinomeScan profiling
Format in all cases: binding

The target in experiment [1] is T1, ACVR1 (Homo sapiens, UniProt Q04771).
T1 construct: purchased KinomeScan®
T1 sequence (Q04771 21-509): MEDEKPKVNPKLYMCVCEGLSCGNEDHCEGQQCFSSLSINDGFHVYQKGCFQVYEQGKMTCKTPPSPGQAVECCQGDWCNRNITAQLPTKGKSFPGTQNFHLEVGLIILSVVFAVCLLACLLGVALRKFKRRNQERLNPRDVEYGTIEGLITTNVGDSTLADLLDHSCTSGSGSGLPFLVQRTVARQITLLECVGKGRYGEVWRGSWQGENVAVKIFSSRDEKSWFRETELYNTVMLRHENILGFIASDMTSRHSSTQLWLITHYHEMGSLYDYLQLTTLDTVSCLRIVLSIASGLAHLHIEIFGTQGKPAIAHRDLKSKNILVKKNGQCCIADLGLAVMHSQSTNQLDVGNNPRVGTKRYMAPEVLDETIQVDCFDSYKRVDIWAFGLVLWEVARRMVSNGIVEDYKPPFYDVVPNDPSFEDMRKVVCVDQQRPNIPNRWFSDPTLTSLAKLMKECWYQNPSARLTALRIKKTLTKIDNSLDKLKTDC
The conditions noted are these: ACVR1, 1 μM; read-out: % control. The method in brief:
(§1)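 Test agents were profiled at a single concentration of 1 μM (DMSO vehicle) on a near-complete set of 468 kinases. Signal is reported relative to vehicle (100%) and a fully displacing control (0%).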

For experiment [2], the target named is T2, CHEK1 (Homo sapiens, UniProt O14757).
T2 sequence (O14757 1-476): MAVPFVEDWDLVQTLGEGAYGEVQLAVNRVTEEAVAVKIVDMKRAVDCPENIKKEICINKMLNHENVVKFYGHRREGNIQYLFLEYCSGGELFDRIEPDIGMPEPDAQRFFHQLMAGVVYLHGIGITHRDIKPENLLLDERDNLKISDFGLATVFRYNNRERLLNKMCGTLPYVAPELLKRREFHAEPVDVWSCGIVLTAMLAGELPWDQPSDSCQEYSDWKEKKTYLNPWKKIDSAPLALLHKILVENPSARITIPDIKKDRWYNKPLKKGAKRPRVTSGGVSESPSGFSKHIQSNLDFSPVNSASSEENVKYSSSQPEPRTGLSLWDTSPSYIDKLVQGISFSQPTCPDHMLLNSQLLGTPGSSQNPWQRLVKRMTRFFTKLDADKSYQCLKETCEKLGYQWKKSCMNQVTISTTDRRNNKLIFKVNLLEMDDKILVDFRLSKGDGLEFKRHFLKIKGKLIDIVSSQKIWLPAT
The conditions noted are these: CHEK1, 1 μM; read-out: % control. Put shortly: as §1

Experiment [3] concerns the target T3, ASK2 (Homo sapiens, UniProt O95382).
T3 construct: purchased KinomeScan®
T3 sequence (O95382 1-1288): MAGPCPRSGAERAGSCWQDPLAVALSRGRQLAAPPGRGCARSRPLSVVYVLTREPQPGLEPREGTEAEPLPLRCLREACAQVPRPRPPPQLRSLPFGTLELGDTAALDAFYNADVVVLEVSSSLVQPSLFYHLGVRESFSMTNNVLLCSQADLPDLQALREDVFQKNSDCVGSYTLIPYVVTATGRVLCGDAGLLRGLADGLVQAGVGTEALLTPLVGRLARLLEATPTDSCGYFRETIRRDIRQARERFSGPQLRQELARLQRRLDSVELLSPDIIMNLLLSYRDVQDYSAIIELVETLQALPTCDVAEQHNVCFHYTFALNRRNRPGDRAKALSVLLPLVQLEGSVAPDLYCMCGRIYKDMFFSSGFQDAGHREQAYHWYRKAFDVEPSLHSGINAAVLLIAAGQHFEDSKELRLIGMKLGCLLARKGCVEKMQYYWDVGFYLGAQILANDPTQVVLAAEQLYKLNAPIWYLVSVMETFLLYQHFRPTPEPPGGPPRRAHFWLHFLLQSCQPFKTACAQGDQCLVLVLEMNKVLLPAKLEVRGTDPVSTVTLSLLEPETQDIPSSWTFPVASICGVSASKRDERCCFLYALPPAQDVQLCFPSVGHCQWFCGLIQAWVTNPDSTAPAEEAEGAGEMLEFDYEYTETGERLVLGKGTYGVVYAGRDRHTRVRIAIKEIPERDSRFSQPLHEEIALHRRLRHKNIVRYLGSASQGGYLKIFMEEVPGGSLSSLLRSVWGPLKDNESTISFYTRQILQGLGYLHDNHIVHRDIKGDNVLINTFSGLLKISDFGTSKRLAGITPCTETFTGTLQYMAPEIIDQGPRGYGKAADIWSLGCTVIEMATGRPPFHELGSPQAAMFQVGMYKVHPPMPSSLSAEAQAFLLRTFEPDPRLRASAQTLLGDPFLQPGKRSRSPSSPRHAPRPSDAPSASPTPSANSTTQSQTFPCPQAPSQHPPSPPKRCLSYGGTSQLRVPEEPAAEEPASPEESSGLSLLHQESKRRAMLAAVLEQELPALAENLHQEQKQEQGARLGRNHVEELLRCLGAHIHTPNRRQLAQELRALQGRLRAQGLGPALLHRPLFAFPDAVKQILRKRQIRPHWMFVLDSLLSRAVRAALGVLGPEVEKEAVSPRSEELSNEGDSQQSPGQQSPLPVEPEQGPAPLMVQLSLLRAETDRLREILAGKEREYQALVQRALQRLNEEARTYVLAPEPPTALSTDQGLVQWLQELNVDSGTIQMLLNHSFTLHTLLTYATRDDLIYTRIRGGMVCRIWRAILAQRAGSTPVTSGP
To be noted: ASK2, 1 μM; read-out: % control. Put shortly:
as §1

With `CNc1c(-c2ccc(C(=O)N3CCC(N4CCOCC4)CC3)cc2)cnc2[nH]cc(Cl)c12` [Compound 96, (4-(3-chloro-4-(methylamino)-1H-pyrrolo[2,3-b]pyridin-5-yl)phenyl)(4-morpholinopiperidin-1-yl)methanone], the remaining binding at 1 µM in experiment [1] came to 81%; in experiment [2], 84%; in experiment [3] it was 42%.
On the same counts, the results for `O=C(c1ccc(-c2cnc3[nH]cc(Cl)c3c2NC2CCCC2)cc1)N1CCC(N2CCOCC2)CC1` [Compound 101, (4-(3-chloro-4-(cyclopentylamino)-1H-pyrrolo[2,3-b]pyridin-5-yl)phenyl)(4-morpholinopiperidin-1-yl)methanone] are 100%, 83% and 100%.
The matching figures for `CNc1c(-c2cnn([C@H]3CCN(C(C)=O)C[C@@H]3F)c2)cnc2[nH]cc(Cl)c12` [Compound 77, 1-((3S,4S)-4-(4-(3-chloro-4-(methylamino)-1H-pyrrolo[2,3-b]pyridin-5-yl)-1H-pyrazol-1-yl)-3-fluoropiperidin-1-yl)ethan-1-one]: 100%, 89% and 30%.
